The values that follow come from ChEMBL document CHEMBL1123159, “Quantitative evaluation of the beta 2-adrenoceptor intrinsic activity of N-tert-butylphenylethanolamines” (J Med Chem, 1986).

Data set [1] concerns the target Beta-2 adrenergic receptor (Bos taurus) (UniProt Q28044). In words: Concentration required for maximal (95-100%) beta-2 adrenergic receptor occupancy.
Data set [2] shares this target. The data set is described as follows: Beta-2 adrenergic receptor intrinsic symphaticomimetic activity relative to salbutamol. Type of data set: functional.
Data set [3] can be described thus: log(1/ISA) value of the compound.
The target of data set [4] is Beta-2 adrenergic receptor (Bos taurus) (UniProt Q28044). The data set is described as follows: Intrinsic activity was measured as concentration of beta-2 adrenergic receptor agonist required for cAMP production. Type of data set: functional.
Sequence of Beta-2 adrenergic receptor (Bos taurus) (Q28044 whole entry, looked up): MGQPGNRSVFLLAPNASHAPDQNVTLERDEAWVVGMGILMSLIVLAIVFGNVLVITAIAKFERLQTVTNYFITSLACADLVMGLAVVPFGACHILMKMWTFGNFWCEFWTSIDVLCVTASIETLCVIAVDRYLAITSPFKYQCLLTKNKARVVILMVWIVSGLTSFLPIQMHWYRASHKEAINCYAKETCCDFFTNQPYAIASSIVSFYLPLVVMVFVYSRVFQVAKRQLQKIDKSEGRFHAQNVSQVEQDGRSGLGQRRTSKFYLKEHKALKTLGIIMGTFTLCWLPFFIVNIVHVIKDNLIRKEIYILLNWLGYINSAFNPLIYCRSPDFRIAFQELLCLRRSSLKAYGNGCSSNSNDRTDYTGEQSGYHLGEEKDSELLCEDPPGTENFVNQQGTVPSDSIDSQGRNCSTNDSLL
Data set [5] concerns the target Beta-2 adrenergic receptor (Bos taurus, UniProt Q28044). In words: Apparent binding affinity constant to beta-2 adrenergic receptor determined using [3H]DHA. The conditions noted are these: read-out: KD app.

Structures are written as SMILES.

Sequence of Beta-2 adrenergic receptor (Q28044 whole entry): as the sequence (Q28044 whole entry, looked up) above

Turning to `CNc1cc(C(O)CNC(C)(C)C)ccc1O` (stereo not given), the Concentration in data set [1] is 30 µM. This molecule returned an ISA in data set [2] of 0.95. In addition, in data set [3], the “Log 1/ISA” value is 0.02. This molecule also yielded a cAMP production (pM min-1 mg-1) in data set [4] of 115. Besides, the Kd in data set [5] amounted to 560 nM.

Molecule `CC(C)(C)NCC(O)c1cc(Cl)c(O)c(Cl)c1` (stereo not given) returned a Concentration in data set [1] of 300 µM. Besides, the ISA in data set [2] turned out to be 0.39. Also, the “Log 1/ISA” value in data set [3] turned out to be 0.41. In addition, in data set [4], the cAMP production (pM min-1 mg-1) is 47. For the same molecule, in data set [5], the Kd worked out at 6470 nM.

In the case of `CC(C)(C)NCC(O)c1ccc(O)c(CO)c1` (stereo not given), in data set [1], the Concentration was 30 µM. The same molecule showed an ISA in data set [2] of 1. Also, in data set [4], the cAMP production (pM min-1 mg-1) came to 122.

In data set [1], `CC(C)(C)NCC(O)c1cc(Cl)c(N)c(Cl)c1` (stereo not given) registered a Concentration of 1 µM. Further, the ISA in data set [2] is 0.53. Moreover, the cAMP production (pM min-1 mg-1) in data set [4] turned out to be 64.

Take `CC(C)(C)NCC(O)c1ccccc1` (stereo not given): the Concentration in data set [1] is 100 µM. This molecule also returned an ISA in data set [2] of 0.35. In data set [3], the “Log 1/ISA” value was determined as 0.46. Further, the cAMP production (pM min-1 mg-1) in data set [4] was 43. In addition, the Kd in data set [5] is 2940 nM.

As to `CC(C)(C)NCC(O)c1ccccc1Cl` (stereo not given) [TULOBUTEROL], the Concentration in data set [1] turned out to be 10 µM. In data set [2], this molecule came in with an ISA of 0.5. The “Log 1/ISA” value in data set [3] turned out to be 0.3. Besides, the cAMP production (pM min-1 mg-1) in data set [4] amounted to 61.

Molecule `CC(C)(C)NCC(O)c1ccc(O)cc1` (stereo not given) registered a Concentration in data set [1] of 100 µM. In addition, the ISA in data set [2] turned out to be 0.8. Also, the “Log 1/ISA” value in data set [3] is recorded as 0.1. This molecule displayed a cAMP production (pM min-1 mg-1) in data set [4] of 97. Moreover, in data set [5], the Kd amounted to 1350 nM.

In turn, `CC(C)(C)NCC(O)c1ccc(O)c(C(N)=O)c1` (stereo not given) showed a Concentration in data set [1] of 30 µM. The molecule also registered an ISA in data set [2] of 0.2. In addition, the “Log 1/ISA” value in data set [3] worked out at 0.7. This molecule displayed a cAMP production (pM min-1 mg-1) in data set [4] of 24. Also, in data set [5], the Kd was found to be 1030 nM.

The molecule `CC(C)(C)NCC(O)c1cc(O)cc(O)c1` (stereo not given) returned an ISA in data set [2] of 0.41. In addition, the cAMP production (pM min-1 mg-1) in data set [4] was 50.

In the case of `CC(C)(C)NCC(O)c1ccc(O)c(O)c1` (stereo not given) [COLTEROL], the ISA in data set [2] was 0.68. Further, the “Log 1/ISA” value in data set [3] was determined as 0.17. The molecule further came in with a cAMP production (pM min-1 mg-1) in data set [4] of 83. For the same molecule, in data set [5], the Kd came to 670 nM.

In data set [2], `CC(C)(C)NCC(O)c1ccc(O)c(N)c1` (stereo not given) had an ISA of 0.68. Moreover, in data set [3], the “Log 1/ISA” value was 0.17. Further, the cAMP production (pM min-1 mg-1) in data set [4] turned out to be 83. Moreover, the Kd in data set [5] was 2170 nM.
